#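 96-well plates; 48 h exposure; 5 concentrations. Endpoints by linear interpolation between flanking doses. Not reached: highest tested concentration assigned. Here, GI50 denotes the concentration required for 50% inhibition of growth.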 Calls of active or inactive are those of the source. No stated cut-off is given here; in the data, active = GI50 up to about 1.1 µM and inactive = higher.
# Columns and labels:
# Test in all cases: DTP human tumour cell line panel, 48 h
# [1] = system: 786-0
# [2] = system: A498
# [3] = system: A549
# [4] = system: ACHN
# [5] = system: CCRF-CEM
# [6] = system: COLO 205
# [7] = system: DLD-1
# [8] = system: DMS-114
# [9] = system: DMS-273
# [10] = system: EKVX
# [11] = system: HCC 2998
# [12] = system: HCT-116
# [13] = system: HCT-15
# [14] = system: HL-60
# [15] = system: HOP-62
# [16] = system: HT-29
# [17] = system: IGROV-1
# [18] = system: K562
# [19] = system: KM-20L2
# [20] = system: LOX IMVI
# [21] = system: LXFL 529
# [22] = system: M14
# [23] = system: M19-MEL
# [24] = system: MOLT-4
# [25] = system: Malme-3M
# [26] = system: NCI-H226
# [27] = system: NCI-H23
# [28] = system: NCI-H460
# [29] = system: OVCAR-3
# [30] = system: OVCAR-4
# [31] = system: RPMI-8226
# [32] = system: RXF 393
# [33] = system: SF-268
# [34] = system: SF-295
# [35] = system: SF-539
# [36] = system: SK-MEL-28
# [37] = system: SK-MEL-2
# [38] = system: SK-MEL-5
# [39] = system: SN12C
# [40] = system: SNB-19
# [41] = system: SNB-75
# [42] = system: SR
# [43] = system: SW-620
# [44] = system: TK-10
# [45] = system: U-251
# [46] = system: UACC-257
# [47] = system: UACC-62
# [48] = system: UO-31
# [49] = system: XF498
# [50] = system: CAKI-1
# [51] = system: HOP-92
# [52] = system: KM12
# [53] = system: NCI-H522
# [54] = system: OVCAR-5
# [55] = system: OVCAR-8
# [56] = system: SK-OV-3
# [57] = system: SNB-78
# [58] = system: BT-549
# [59] = system: DU-145
# [60] = system: Hs-578T
# [61] = system: MCF7
# [62] = system: MDA-MB-231
# [63] = system: MDA-MB-435
# [64] = system: MDA-N
# [65] = system: NCI/ADR-RES
# [66] = system: PC-3
# [67] = system: T47D
smiles,measurement,setting,value
Cc1cccc2c(=O)cc(-c3ccccc3)[nH]c12,GI50,[1],4.78 µM (inactive)
same,GI50,[2],5.3 µM (inactive)
same,GI50,[3],6.11 µM (inactive)
same,GI50,[4],12.2 µM (inactive)
same,GI50,[5],3.62 µM (inactive)
same,GI50,[6],4.36 µM (inactive)
same,GI50,[7],4.31 µM (inactive)
same,GI50,[8],3.95 µM (inactive)
same,GI50,[9],3.57 µM (inactive)
same,GI50,[10],46.2 µM (inactive)
same,GI50,[11],4.39 µM (inactive)
same,GI50,[12],5.06 µM (inactive)
same,GI50,[13],4.23 µM
same,GI50,[14],3.25 µM (inactive)
same,GI50,[15],3.64 µM (inactive)
same,GI50,[16],3.1 µM (inactive)
same,GI50,[17],7.26 µM (inactive)
same,GI50,[18],2 µM (inactive)
same,GI50,[19],4.07 µM (inactive)
same,GI50,[20],4.58 µM (inactive)
same,GI50,[21],4.61 µM (inactive)
same,GI50,[22],3.45 µM (inactive)
same,GI50,[23],4.61 µM (inactive)
same,GI50,[24],4.54 µM (inactive)
same,GI50,[25],4.09 µM (inactive)
same,GI50,[26],20.2 µM (inactive)
same,GI50,[27],4.91 µM (inactive)
same,GI50,[28],3.95 µM (inactive)
same,GI50,[29],3.31 µM (inactive)
same,GI50,[30],4.09 µM (inactive)
same,GI50,[31],5.4 µM (inactive)
same,GI50,[32],3.62 µM (inactive)
same,GI50,[33],8.15 µM (inactive)
same,GI50,[34],4.09 µM (inactive)
same,GI50,[35],5.69 µM (inactive)
same,GI50,[36],> 100 µM (inactive)
same,GI50,[37],4.6 µM (inactive)
same,GI50,[38],2.36 µM (inactive)
same,GI50,[39],5.42 µM (inactive)
same,GI50,[40],7.94 µM (inactive)
same,GI50,[41],1.73 µM (inactive)
same,GI50,[42],6.93 µM (inactive)
same,GI50,[43],2.6 µM (inactive)
same,GI50,[44],> 100 µM (inactive)
same,GI50,[45],21.9 µM (inactive)
same,GI50,[46],5.22 µM (inactive)
same,GI50,[47],4.21 µM (inactive)
same,GI50,[48],15.6 µM (inactive)
same,GI50,[49],3.01 µM (inactive)
COCC(=O)CP(=O)(OC)OC,GI50,[1],> 100 µM (inactive)
same,GI50,[2],> 100 µM (inactive)
same,GI50,[3],> 100 µM (inactive)
same,GI50,[4],> 100 µM (inactive)
same,GI50,[50],> 100 µM (inactive)
same,GI50,[5],> 100 µM (inactive)
same,GI50,[6],> 100 µM (inactive)
same,GI50,[8],> 100 µM (inactive)
same,GI50,[9],> 100 µM (inactive)
same,GI50,[10],> 100 µM (inactive)
same,GI50,[12],> 100 µM (inactive)
same,GI50,[13],> 100 µM
same,GI50,[14],> 100 µM (inactive)
same,GI50,[15],> 100 µM (inactive)
same,GI50,[51],> 100 µM (inactive)
same,GI50,[16],> 100 µM (inactive)
same,GI50,[17],> 100 µM (inactive)
same,GI50,[18],> 100 µM (inactive)
same,GI50,[52],> 100 µM (inactive)
same,GI50,[20],> 100 µM (inactive)
same,GI50,[21],> 100 µM (inactive)
same,GI50,[22],> 100 µM (inactive)
same,GI50,[23],> 100 µM (inactive)
same,GI50,[24],> 100 µM (inactive)
same,GI50,[25],> 100 µM (inactive)
same,GI50,[27],> 100 µM (inactive)
same,GI50,[28],> 100 µM (inactive)
same,GI50,[53],> 100 µM (inactive)
same,GI50,[29],> 100 µM (inactive)
same,GI50,[30],> 100 µM (inactive)
same,GI50,[54],> 100 µM (inactive)
same,GI50,[55],> 100 µM (inactive)
same,GI50,[31],> 100 µM (inactive)
same,GI50,[32],> 100 µM (inactive)
same,GI50,[33],> 100 µM (inactive)
same,GI50,[34],> 100 µM (inactive)
same,GI50,[35],> 100 µM (inactive)
same,GI50,[36],> 100 µM (inactive)
same,GI50,[37],> 100 µM (inactive)
same,GI50,[38],> 100 µM (inactive)
same,GI50,[56],> 100 µM (inactive)
same,GI50,[39],> 100 µM (inactive)
same,GI50,[40],> 100 µM (inactive)
same,GI50,[41],> 100 µM (inactive)
same,GI50,[57],> 100 µM (inactive)
same,GI50,[43],> 100 µM (inactive)
same,GI50,[44],> 100 µM (inactive)
same,GI50,[45],> 100 µM (inactive)
same,GI50,[46],> 100 µM (inactive)
same,GI50,[47],> 100 µM (inactive)
same,GI50,[48],> 100 µM (inactive)
same,GI50,[49],> 100 µM (inactive)
C/C(=N\NC(=S)NC(C)(C)C)c1nc2cccnc2[nH]1,GI50,[1],3.02 µM (inactive)
same,GI50,[2],18.6 µM (inactive)
same,GI50,[3],3.29 µM (inactive)
same,GI50,[4],2.82 µM (inactive)
same,GI50,[58],2.55 µM (inactive)
same,GI50,[50],3.33 µM (inactive)
same,GI50,[5],0.955 µM (active)
same,GI50,[6],2.26 µM (inactive)
same,GI50,[59],2.43 µM (inactive)
same,GI50,[10],2.5 µM (inactive)
same,GI50,[11],3.79 µM (inactive)
same,GI50,[12],3.59 µM (inactive)
same,GI50,[13],2.47 µM
same,GI50,[14],1.2 µM (inactive)
same,GI50,[15],6.15 µM (inactive)
same,GI50,[51],1.47 µM (inactive)
same,GI50,[16],1.71 µM (inactive)
same,GI50,[60],3.36 µM (inactive)
same,GI50,[17],3.06 µM (inactive)
same,GI50,[18],1.83 µM (inactive)
same,GI50,[52],4.8 µM (inactive)
same,GI50,[20],3.4 µM (inactive)
same,GI50,[22],3.33 µM (inactive)
same,GI50,[61],0.309 µM (active)
same,GI50,[62],3.55 µM (inactive)
same,GI50,[63],5.37 µM (inactive)
same,GI50,[64],7.38 µM (inactive)
same,GI50,[24],2.13 µM (inactive)
same,GI50,[25],4.49 µM (inactive)
same,GI50,[26],3.4 µM (inactive)
same,GI50,[27],8.26 µM (inactive)
same,GI50,[28],3.03 µM (inactive)
same,GI50,[53],4.53 µM (inactive)
same,GI50,[65],3.03 µM (inactive)
same,GI50,[29],0.384 µM (active)
same,GI50,[30],0.634 µM (active)
same,GI50,[54],1.14 µM (inactive)
same,GI50,[55],1.5 µM (inactive)
same,GI50,[66],7.93 µM (inactive)
same,GI50,[31],6.05 µM (inactive)
same,GI50,[32],4.92 µM (inactive)
same,GI50,[33],6.53 µM (inactive)
same,GI50,[34],2.8 µM (inactive)
same,GI50,[35],3.21 µM (inactive)
same,GI50,[36],8.71 µM (inactive)
same,GI50,[37],3.85 µM (inactive)
same,GI50,[38],2.21 µM (inactive)
same,GI50,[56],3.08 µM (inactive)
same,GI50,[39],7.74 µM (inactive)
same,GI50,[40],6.93 µM (inactive)
same,GI50,[41],16.3 µM (inactive)
same,GI50,[42],4.9 µM (inactive)
same,GI50,[43],3.47 µM (inactive)
same,GI50,[67],0.427 µM (active)
same,GI50,[44],7.35 µM (inactive)
same,GI50,[45],1.15 µM (inactive)
same,GI50,[46],3.09 µM (inactive)
same,GI50,[47],2.57 µM (inactive)
same,GI50,[48],1.06 µM (active)
